Test results reported in PubChem BioAssay (NCI).
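Five compound concentrations were applied to cells in 96-well plates for 48 hours; endpoints were derived by simple linear interpolation of the resulting dose-response curve. At the TGI there is no net growth.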

Legend:
Assay in all cases: NCI tumour cell line growth inhibition, 48 h
[1] = tested on: A549 NSCLC
[2] = tested on: MCF7 breast
[3] = tested on: HS 578T breast
[4] = tested on: SNB-19 CNS
[5] = tested on: IGROV1 ovarian
[6] = tested on: ACHN renal
[7] = tested on: HCC-2998 colon
[8] = tested on: HCT-116 colon
[9] = tested on: NCI-H522 lung
[10] = tested on: HCT-15 colon
[11] = tested on: T-47D breast
[12] = tested on: HOP-62 NSCLC
[13] = tested on: SNB-75 CNS
[14] = tested on: NCI/ADR-RES ovarian
[15] = tested on: OVCAR-4 ovarian
[16] = tested on: RXF 393 renal
[17] = tested on: A498 renal
[18] = tested on: UO-31 renal
[19] = tested on: PC-3 prostate
[20] = tested on: SK-MEL-5 melanoma
[21] = tested on: UACC-62 melanoma
[22] = tested on: BT-549 breast
[23] = tested on: MDA-MB-435
[24] = tested on: CAKI-1 renal
[25] = tested on: SF-268 CNS
[26] = tested on: DU-145 prostate
[27] = tested on: MALME-3M melanoma
[28] = tested on: OVCAR-5 ovarian
[29] = tested on: SK-OV-3 ovarian
[30] = tested on: NCI-H460 lung
[31] = tested on: SN12C renal
[32] = tested on: COLO 205 colon
[33] = tested on: EKVX NSCLC
[34] = tested on: NCI-H226 lung
[35] = tested on: MDA-N
[36] = tested on: MOLT-4 leukemia
[37] = tested on: 786-0 renal
[38] = tested on: TK-10 renal
[39] = tested on: HT29 colon
[40] = tested on: MDA-MB-231 breast
[41] = tested on: HOP-92 NSCLC
[42] = tested on: U251 CNS
[43] = tested on: SF-539 CNS
[44] = tested on: LOX IMVI melanoma
[45] = tested on: UACC-257 melanoma
[46] = tested on: OVCAR-8 ovarian
[47] = tested on: NCI-H23 lung
[48] = tested on: M14 melanoma
[49] = tested on: CCRF-CEM leukemia
[50] = tested on: RPMI-8226 leukemia
[51] = tested on: OVCAR-3 ovarian
[52] = tested on: KM12 colon
[53] = tested on: SF-295 CNS
[54] = tested on: SK-MEL-2 melanoma
[55] = tested on: K-562 leukemia
[56] = tested on: SW-620 colon
[57] = tested on: HL-60(TB) leukemia
[58] = tested on: SK-MEL-28 melanoma

`CCN(CC)CCO/N=C1/C=C2CCC3C(CC[C@@]4(C)C3CC[C@]4(C)O)[C@@]2(C)CC1` (stereo partly specified) was tested, and the TGI [1] was 45.9 µM, the TGI [2] was 80.1 µM and the TGI [3] was 33.7 µM. For the same molecule, the TGI [4] was 45.4 µM, the TGI [5] was 21 µM and the TGI [6] was 39.2 µM. For the same molecule, the TGI [7] was 19 µM, the TGI [8] was 16.7 µM and the TGI [9] was 6.07 µM. The TGI [10] was 13.7 µM, the TGI [11] was 68 µM and the TGI [12] was 21 µM. For the same molecule, the TGI [13] was 9.15 µM, the TGI [14] was 7.48 µM and the TGI [15] was > 100 µM. The TGI [16] was 72.2 µM, the TGI [17] was 0.878 µM and the TGI [18] was 18.9 µM. For the same molecule, the TGI [19] was 88.1 µM, the TGI [20] was 26 µM and the TGI [21] was 8.57 µM. For the same molecule, the TGI [22] was 39.1 µM, the TGI [23] was 4.77 µM and the TGI [24] was 20.1 µM. For the same molecule, the TGI [25] was 31.2 µM, the TGI [26] was 34.5 µM and the TGI [27] was 15.6 µM. For the same molecule, the TGI [28] was 80 µM, the TGI [29] was 46.4 µM and the TGI [30] was 15.3 µM. For the same molecule, the TGI [31] was 16.3 µM, the TGI [32] was 14.6 µM and the TGI [33] was 42.9 µM. The TGI [34] was 10.2 µM, the TGI [35] was 5.72 µM and the TGI [36] was 10.2 µM. For the same molecule, the TGI [37] was 12.7 µM, the TGI [38] was 45.1 µM and the TGI [39] was 5.35 µM. The TGI [40] was 36 µM, the TGI [41] was 21 µM and the TGI [42] was 11.2 µM. For the same molecule, the TGI [43] was 14.9 µM, the TGI [44] was 14.8 µM and the TGI [45] was 18.2 µM. It also gave a TGI [46] of 20.4 µM, a TGI [47] of 29 µM and a TGI [48] of 23.8 µM. For the same molecule, the TGI [49] was 3.97 µM, the TGI [50] was 15.2 µM and the TGI [51] was 13.6 µM. For the same molecule, the TGI [52] was 18.9 µM, the TGI [53] was 8.29 µM and the TGI [54] was 36.6 µM. It also gave a TGI [55] of 18.9 µM.

`CCCC[C@H]1CCN2C[C@@H](O)[C@@H](O)[C@H]2[C@@H]1O` was tested, and the TGI [1] was > 100 µM, the TGI [2] was > 100 µM and the TGI [3] was > 100 µM. For the same molecule, the TGI [4] was > 100 µM, the TGI [5] was > 100 µM and the TGI [6] was > 100 µM. For the same molecule, the TGI [7] was > 100 µM, the TGI [8] was > 100 µM and the TGI [9] was > 100 µM. The TGI [10] was > 100 µM, the TGI [11] was > 100 µM and the TGI [13] was > 100 µM. The TGI [56] was > 100 µM, the TGI [14] was > 100 µM and the TGI [15] was > 100 µM. For the same molecule, the TGI [17] was > 100 µM, the TGI [18] was > 100 µM and the TGI [19] was > 100 µM. The TGI [20] was > 100 µM, the TGI [21] was > 100 µM and the TGI [22] was > 100 µM. For the same molecule, the TGI [57] was > 100 µM, the TGI [23] was > 100 µM and the TGI [24] was > 100 µM. The TGI [25] was > 100 µM, the TGI [26] was > 100 µM and the TGI [27] was > 100 µM. The TGI [28] was > 100 µM, the TGI [29] was > 100 µM and the TGI [30] was > 100 µM. The TGI [31] was > 100 µM, the TGI [32] was > 100 µM and the TGI [33] was > 100 µM. For the same molecule, the TGI [34] was > 100 µM, the TGI [35] was > 100 µM and the TGI [36] was > 100 µM. The TGI [37] was > 100 µM, the TGI [38] was > 100 µM and the TGI [39] was > 100 µM. The TGI [40] was > 100 µM, the TGI [41] was > 100 µM and the TGI [42] was > 100 µM. For the same molecule, the TGI [58] was > 100 µM, the TGI [43] was > 100 µM and the TGI [44] was > 100 µM. The TGI [45] was > 100 µM, the TGI [46] was > 100 µM and the TGI [47] was > 100 µM. The TGI [48] was > 100 µM, the TGI [49] was > 100 µM and the TGI [50] was > 100 µM. For the same molecule, the TGI [51] was > 100 µM, the TGI [52] was > 100 µM and the TGI [53] was > 100 µM. For the same molecule, the TGI [54] was > 100 µM and the TGI [55] was > 100 µM.
